Reference: patent US20080096967A1, “Formulations for Injection of Catecholic Butanes, Including Ndga Compounds, Into Animals” (priority 2005, published 2008)

Assay: M4N solubility in water miscible organic solvents up to 48 hours (RP-HPLC)
Assay type: physicochemical
Description: To prepare M4N samples, 200 μL of 100 mg/mL M4N dissolved in acetone were placed in 1.5 mL polypropylene microtubes. The solvent was allowed to evaporate at room temperature for 48 hours until the samples were completely dry.
The water miscible organic solvent formulations were prepared in 15 mL polypropylene centrifuge tubes. 10 mL of each formulation was prepared. Each solvent was added on the basis of weight using its respective density at 25° C. Following brief mixing, each formulation was filtered through a 0.45 μm surfactant free cellulose acetate (“SFCA”) filter into a fresh 15 mL tube. Formulations were kept at room temperature until ready for use.
At each time point, the samples were centrifuged for 2 minutes at 13,000 rpm to pellet any solid M4N. As noted in Table 25, over half of the formulation conditions examined were able to solubilize M4N to a concentration of greater than 10 mg/Ml.

COc1ccc(C[C@@H](C)[C@@H](C)Cc2ccc(OC)c(OC)c2)cc1OC [Formulation M4N, meso-1,4-bis(3,4-dimethoxyphenyl)-2,3-dimethylbutane]
M4N solubility (48% EtOH, 50% Crem, 2% Benz, 2 hrs at room temperature): 14020 µg/mL | M4N solubility (48% EtOH, 50% Crem, 2% Benz, 24 hrs at room temperature): 18170 µg/mL | M4N solubility (48% EtOH, 50% Crem, 2% Benz, 48 hrs at room temperature): 18510 µg/mL | M4N solubility (48% EtOH, 50% Glycerol, 2% Benz, 2 hrs at room temperature): 1250 µg/mL | M4N solubility (48% EtOH, 50% Glycerol, 2% Benz, 24 hrs at room temperature): 1660 µg/mL | M4N solubility (48% EtOH, 50% Glycerol, 2% Benz, 48 hrs at room temperature): 1730 µg/mL | M4N solubility (48% EtOH, 50% PEG300, 2% Benz, 2 hrs at room temperature): 14510 µg/mL | M4N solubility (48% EtOH, 50% PEG300, 2% Benz, 24 hrs at room temperature): 15780 µg/mL | M4N solubility (48% EtOH, 50% PEG300, 2% Benz, 48 hrs at room temperature): 16490 µg/mL | M4N solubility (48% EtOH, 50% PG, 2% Benz, 2 hrs at room temperature): 4420 µg/mL | M4N solubility (48% EtOH, 50% PG, 2% Benz, 24 hrs at room temperature): 4790 µg/mL | M4N solubility (48% EtOH, 50% PG, 2% Benz, 48 hrs at room temperature): 4920 µg/mL | M4N solubility (48% EtOH, 50% T80, 2% Benz, 2 hrs at room temperature): 16170 µg/mL | M4N solubility (48% EtOH, 50% T80, 2% Benz, 24 hrs at room temperature): 19550 µg/mL | M4N solubility (48% EtOH, 50% T80, 2% Benz, 48 hrs at room temperature): 19960 µg/mL | M4N solubility (50% EtOH, 50% Crem, 2 hrs at room temperature): 13950 µg/mL | M4N solubility (50% EtOH, 50% Crem, 24 hrs at room temperature): 17580 µg/mL | M4N solubility (50% EtOH, 50% Crem, 48 hrs at room temperature): 18490 µg/mL | M4N solubility (50% EtOH, 50% Glycerol, 2 hrs at room temperature): 1140 µg/mL | M4N solubility (50% EtOH, 50% Glycerol, 24 hrs at room temperature): 1530 µg/mL | M4N solubility (50% EtOH, 50% Glycerol, 48 hrs at room temperature): 1600 µg/mL | M4N solubility (50% EtOH, 50% PEG300, 24 hrs at room temperature): 15070 µg/mL | M4N solubility (50% EtOH, 50% PEG300, 48 hrs at room temperature): 16610 µg/mL | M4N solubility (50% EtOH, 50% PG, 2 hrs at room temperature): 3640 µg/mL | M4N solubility (50% EtOH, 50% PG, 24 hrs at room temperature): 4150 µg/mL | M4N solubility (50% EtOH, 50% PG, 48 hrs at room temperature): 4430 µg/mL | M4N solubility (50% EtOH, 50% T80, 2 hrs at room temperature): 15910 µg/mL | M4N solubility (50% EtOH, 50% T80, 24 hrs at room temperature): 19280 µg/mL | M4N solubility (50% PG, 50% Crem, 2 hrs at room temperature): 2940 µg/mL | M4N solubility (50% PG, 50% Crem, 24 hrs at room temperature): 6330 µg/mL | M4N solubility (50% PG, 50% Crem, 48 hrs at room temperature): 7200 µg/mL | M4N solubility (50% PG, 50% Glycerol, 2 hrs at room temperature): 130 µg/mL | M4N solubility (50% PG, 50% Glycerol, 24 hrs at room temperature): 480 µg/mL | M4N solubility (50% PG, 50% Glycerol, 48 hrs at room temperature): 510 µg/mL | M4N solubility (50% PG, 50% PEG300, 2 hrs at room temperature): 2650 µg/mL | M4N solubility (50% PG, 50% PEG300, 24 hrs at room temperature): 4880 µg/mL | M4N solubility (50% PG, 50% PEG300, 48 hrs at room temperature): 5300 µg/mL | M4N solubility (50% PG, 50% T80, 2 hrs at room temperature): 5070 µg/mL | M4N solubility (50% PG, 50% T80, 24 hrs at room temperature): 8160 µg/mL | M4N solubility (50% PG, 50% T80, 48 hrs at room temperature): 8410 µg/mL | M4N solubility (100% Crem, 2 hrs at room temperature): 1190 µg/mL | M4N solubility (100% Crem, 24 hrs at room temperature): 7510 µg/mL | M4N solubility (100% Crem, 48 hrs at room temperature): 12480 µg/mL | M4N solubility (100% EtOH, 2 hrs at room temperature): 7200 µg/mL | M4N solubility (100% EtOH, 24 hrs at room temperature): 7220 µg/mL | M4N solubility (100% EtOH, 48 hrs at room temperature): 7910 µg/mL | M4N solubility (100% Glycerol, 2 hrs at room temperature): XXX (not detectable) | M4N solubility (100% Glycerol, 24 hrs at room temperature): 80 µg/mL | M4N solubility (100% Glycerol, 48 hrs at room temperature): XXX (not detectable) | M4N solubility (glycerol, 2 and 48 hours): not detectable
